Reference: PMC7377239, “Cardiovascular Effects of Polychlorinated Biphenyls and Their Major Metabolites” (Environmental Health Perspectives, 2020)
Like-named read-outs stand apart in the source and are kept apart here.

System: iCell cardiomyocytes (human iPSC-derived cardiomyocytes)
Experiment: High-content imaging of cytotoxicity and mitochondrial integrity in iPSC-CMs
Format: cell-based
Details: Homo sapiens, Cardiomyocyte; for viability at 0.01 µM / activity at 0.01 µM / viability at 0.1 µM / activity at 0.1 µM / viability at 1 µM / activity at 1 µM / viability at 10 µM / activity at 10 µM / viability at 100 µM / activity at 100 µM: 0.00 µM = 100.00; for viability at 0.1 µM / activity at 0.1 µM: 0.10 µM
Procedure, shortened: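 This assay measured cytotoxicity and mitochondrial integrity in iPSC cardiomyocytes held in 40μL maintenance medium. After compound exposure, a 2× staining solution with Hoechst 33342 (4μg/mL) and MitoTracker™ Orange (0.4μM) was applied for 15 min at 37°C. Cells were washed, fixed with 3.7% formaldehyde, imaged on DAPI and Cy3 channels, and scored in MetaXpress®.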

[1] = 1.5 h, 90min, read-out: cm.cam.90min
[2] = 1.5 h, 90min, read-out: cm.mii.90min
[3] = 1.5 h, 90min, read-out: cm.mito.90min
[4] = 1.5 h, 90min, read-out: cm.tc.90min
[5] = 24 h, 24hrs, read-out: cm.cam.24hrs
[6] = 24 h, 24hrs, read-out: cm.mii.24hrs
[7] = 24 h, 24hrs, read-out: cm.mito.24hrs
[8] = 24 h, 24hrs, read-out: cm.tc.24hrs

## Clc1ccc(Cl)c(-c2c(Cl)ccc(Cl)c2Cl)c1 [PCB95]
[1]
  viability at 0.01 µM: 98.2%
  viability at 0.1 µM: 95.8%
  viability at 1 µM: 93.8%
  viability at 10 µM: 107%
  viability at 100 µM: 0.65%
[2]
  activity at 0.01 µM: 114%
  activity at 0.1 µM: 100%
  activity at 1 µM: 109%
  activity at 10 µM: 110%
  activity at 100 µM: 92.8%
[3]
  activity at 0.01 µM: 97.8%
  activity at 0.1 µM: 95.4%
  activity at 1 µM: 93.2%
  activity at 10 µM: 107%
  activity at 100 µM: 0.97%
[4]
  viability at 0.01 µM: 97.9%
  viability at 0.1 µM: 95.4%
  viability at 1 µM: 93.1%
  viability at 10 µM: 107%
  viability at 100 µM: 1.11%
1.5 h, 90min, read-out: cm.cam.90min POD
  minimal effective concentration: 36.6 µM
1.5 h, 90min, read-out: cm.mii.90min POD
  minimal effective concentration: 100 µM
1.5 h, 90min, read-out: cm.mito.90min POD
  minimal effective concentration: 39.6 µM
1.5 h, 90min, read-out: cm.tc.90min POD
  minimal effective concentration: 38.7 µM
[5]
  viability at 0.01 µM: 97.2%
  viability at 0.1 µM: 98.9%
  viability at 1 µM: 99.8%
  viability at 10 µM: 93.8%
  viability at 100 µM: 1.96%
[6]
  activity at 0.01 µM: 90.3%
  activity at 0.1 µM: 99%
  activity at 1 µM: 100%
  activity at 10 µM: 95.1%
  activity at 100 µM: 34.3%
[7]
  activity at 0.01 µM: 95.7%
  activity at 0.1 µM: 99%
  activity at 1 µM: 97.7%
  activity at 10 µM: 92.7%
  activity at 100 µM: 1.73%
[8]
  viability at 0.01 µM: 97.3%
  viability at 0.1 µM: 99%
  viability at 1 µM: 98.7%
  viability at 10 µM: 93.5%
  viability at 100 µM: 2.9%
24 h, read-out: cm.cam.24hrs POD
  minimal effective concentration: 8.98 µM
24 h, read-out: cm.mii.24hrs POD
  minimal effective concentration: 22.2 µM
24 h, read-out: cm.mito.24hrs POD
  minimal effective concentration: 8.96 µM
24 h, read-out: cm.tc.24hrs POD
  minimal effective concentration: 8.75 µM
